According to PMC3984115 (PLoS ONE, 2014):
Several values for one entry are separate records, joined by “and”; a condition that tells them apart may be missing. Equal entries are not always repeated. Where two headings read alike, the source gives them in different places. Where no end group is shown, it is not given here.

How the values were obtained:
[1] = test system: release of dopamine from dopaminergic terminals of rat striatal neurons; details: cited from earlier work
[2] = test system: release of dopamine from dopaminergic terminals of mouse striatal neurons; details: cited from earlier work
[3] = test system: nAChRs in monkey adrenal chromaffin cells; test: Agonist-evoked currents, perforated-patch patch-clamp, monkey adrenal chromaffin cells; assay type: cell-based, monkey (Macaca mulatta); details: for current amplitude (choline comparison cells): 10 mM choline versus 300 μM ACh in the same cells
M. mulatta α7 nAChRs = details: heterologously expressed M. mulatta α7; ref [37]; cited from earlier work
[4] = test system: heteromeric receptor subtypes that contain the β2 subunit; design: method as in PMID 10692507; details: β2-containing heteromeric receptors; ref [38]; cited from earlier work
human α6/α3β4 nAChR = molecular target: T1, human α6/α3β4 nAChR (Homo sapiens, UniProt P30926+P32297+Q15825); assay type: cell-based
T1 construct: expressed in transfected cells; host or cells: Xenopus laevis oocytes (cRNA injection, 1:1 ratio)
T1 sequence (P30926 whole entry, looked up): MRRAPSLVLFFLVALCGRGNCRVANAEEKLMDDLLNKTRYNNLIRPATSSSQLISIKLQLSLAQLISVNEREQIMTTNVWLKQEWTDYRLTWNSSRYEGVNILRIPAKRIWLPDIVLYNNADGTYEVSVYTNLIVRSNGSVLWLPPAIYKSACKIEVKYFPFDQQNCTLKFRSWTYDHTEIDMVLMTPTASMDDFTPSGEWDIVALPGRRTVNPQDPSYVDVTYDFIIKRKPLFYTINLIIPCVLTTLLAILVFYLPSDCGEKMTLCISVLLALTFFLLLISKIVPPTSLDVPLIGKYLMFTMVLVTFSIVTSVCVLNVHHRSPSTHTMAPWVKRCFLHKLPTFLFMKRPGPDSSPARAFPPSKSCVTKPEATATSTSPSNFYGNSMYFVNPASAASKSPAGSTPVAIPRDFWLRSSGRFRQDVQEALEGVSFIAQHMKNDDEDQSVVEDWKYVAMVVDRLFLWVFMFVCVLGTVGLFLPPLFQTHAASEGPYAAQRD
T1 sequence (P32297 whole entry, looked up): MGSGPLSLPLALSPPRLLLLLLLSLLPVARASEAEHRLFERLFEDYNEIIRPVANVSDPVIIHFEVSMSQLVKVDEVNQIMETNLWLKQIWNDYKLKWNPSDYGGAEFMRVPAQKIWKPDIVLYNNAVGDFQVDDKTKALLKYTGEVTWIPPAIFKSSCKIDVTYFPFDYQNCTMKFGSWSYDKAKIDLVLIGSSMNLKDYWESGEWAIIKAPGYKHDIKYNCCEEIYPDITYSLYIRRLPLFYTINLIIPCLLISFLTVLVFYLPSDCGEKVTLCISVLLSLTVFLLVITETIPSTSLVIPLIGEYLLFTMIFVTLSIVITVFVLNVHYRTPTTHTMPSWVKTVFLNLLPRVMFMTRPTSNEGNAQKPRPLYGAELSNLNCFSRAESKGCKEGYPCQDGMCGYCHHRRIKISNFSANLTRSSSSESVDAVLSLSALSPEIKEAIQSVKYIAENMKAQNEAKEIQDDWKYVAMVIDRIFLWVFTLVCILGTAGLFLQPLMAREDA
T1 sequence (Q15825 whole entry, looked up): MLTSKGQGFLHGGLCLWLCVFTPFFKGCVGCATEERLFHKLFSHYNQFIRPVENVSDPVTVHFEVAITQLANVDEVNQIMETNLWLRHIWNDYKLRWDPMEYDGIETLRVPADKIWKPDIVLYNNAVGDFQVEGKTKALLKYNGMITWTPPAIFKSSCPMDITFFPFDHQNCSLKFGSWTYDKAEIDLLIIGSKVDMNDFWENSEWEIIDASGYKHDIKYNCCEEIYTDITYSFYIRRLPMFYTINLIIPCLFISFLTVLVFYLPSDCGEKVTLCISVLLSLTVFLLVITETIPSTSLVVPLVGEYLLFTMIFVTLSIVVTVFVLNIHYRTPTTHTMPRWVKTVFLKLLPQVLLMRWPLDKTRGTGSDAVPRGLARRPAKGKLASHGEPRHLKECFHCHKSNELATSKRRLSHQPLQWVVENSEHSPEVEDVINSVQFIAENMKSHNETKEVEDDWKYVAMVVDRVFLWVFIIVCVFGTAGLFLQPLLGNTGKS

## α-Ctx MII (GCCSNPVCHLEHSNLC; ends and bridges not checked; cysteine pairing not given here; UniProt P56636 49-64, looked up)
[1]
  sensitivity of dopamine release to toxin, in words: sensitive
[2]
  sensitivity of dopamine release to toxin, in words: sensitive

## C[N+](C)(C)CCO [choline]
[3]; n = 4, ± S.E.M.
  current amplitude (choline comparison cells): 21±4 pA
[3]; 10 mM choline, n = 4, ± S.E.M., holding potential −80 mV
  current amplitude as % of response evoked by 300 μM ACh in the same cells: 1.7±0.1%
[3]; cells with currents evoked by acetylcholine
  response to agonist, in words: relatively unresponsive
M. mulatta α7 nAChRs
  agonist activity in words: full agonist

## CC(=O)OCC[N+](C)(C)C [ACh, acetylcholine]
[3]; 100 μM 5-I-A-85380 versus 300 μM ACh in the same cells, n = 4, ± S.E.M.
  current amplitude (5-I-A-85380 comparison cells): 657± 97 pA
[3]; 100 μM 5-I-A-85380 versus 300 μM ACh in the same cells, n = 4, ± S.E.M., difference not statistically significant, p = 0.0625
  current density: 149±22 pA/pF
[3]; 300 μM ACh, mean ± S.D.M, n = 18, holding potential −80 mV, 200 ms pulses
  peak current amplitude: 865 ± 387 pA
[3]; n = 4, ± S.E.M.
  current amplitude (choline comparison cells): 1245±238 pA

## Ic1cncc(OC[C@@H]2CCN2)c1 [5-I-A-85380]
[3]
  efficacy versus 300 μM ACh, in words: more efficacious than 300 μM ACh
  response to agonist, in words: responded
[3]; n = 4
  current amplitude (5-I-A-85380 comparison cells): 1088±120 pA
  current amplitude relative to ACh (printed "% larger than the currents evoked by ACh"): 170±16%
  current density: 256±28 pA/pF
[4]
  affinity in words: high affinity
Human α6/α3β4 nAChR
  current amplitude as % of that produced by 300 μM ACh in the same cells: 100±12.1% and 100±12%
  efficacy versus 300 μM ACh, in words: as efficacious as 300 μM ACh
